According to patent publication US20210269451A1, “PYRIDINYL HETEROCYCLYL COMPOUNDS FOR THE TREATMENT OF AUTOIMMUNE DISEASE” (Hoffmann-La Roche Inc., priority 2018, published 2021):
pIC50: −log10 of the molar value.

Columns and labels:
human TLR8 = molecular target: T1, human TLR8 (Homo sapiens, UniProt Q9NR97); assay: HEK293-Blue-hTLR-8 cells assay; assay type: cell-based; conditions: HEK293-Blue-hTLR8 cells, R848 stimulation, 20 hrs, SEAP reporter; read-out: HEK/hTLR8 IC50
T1 construct: host or cells: HEK293-Blue-hTLR-8 (HEK293)
T1 sequence (Q9NR97 27-1041): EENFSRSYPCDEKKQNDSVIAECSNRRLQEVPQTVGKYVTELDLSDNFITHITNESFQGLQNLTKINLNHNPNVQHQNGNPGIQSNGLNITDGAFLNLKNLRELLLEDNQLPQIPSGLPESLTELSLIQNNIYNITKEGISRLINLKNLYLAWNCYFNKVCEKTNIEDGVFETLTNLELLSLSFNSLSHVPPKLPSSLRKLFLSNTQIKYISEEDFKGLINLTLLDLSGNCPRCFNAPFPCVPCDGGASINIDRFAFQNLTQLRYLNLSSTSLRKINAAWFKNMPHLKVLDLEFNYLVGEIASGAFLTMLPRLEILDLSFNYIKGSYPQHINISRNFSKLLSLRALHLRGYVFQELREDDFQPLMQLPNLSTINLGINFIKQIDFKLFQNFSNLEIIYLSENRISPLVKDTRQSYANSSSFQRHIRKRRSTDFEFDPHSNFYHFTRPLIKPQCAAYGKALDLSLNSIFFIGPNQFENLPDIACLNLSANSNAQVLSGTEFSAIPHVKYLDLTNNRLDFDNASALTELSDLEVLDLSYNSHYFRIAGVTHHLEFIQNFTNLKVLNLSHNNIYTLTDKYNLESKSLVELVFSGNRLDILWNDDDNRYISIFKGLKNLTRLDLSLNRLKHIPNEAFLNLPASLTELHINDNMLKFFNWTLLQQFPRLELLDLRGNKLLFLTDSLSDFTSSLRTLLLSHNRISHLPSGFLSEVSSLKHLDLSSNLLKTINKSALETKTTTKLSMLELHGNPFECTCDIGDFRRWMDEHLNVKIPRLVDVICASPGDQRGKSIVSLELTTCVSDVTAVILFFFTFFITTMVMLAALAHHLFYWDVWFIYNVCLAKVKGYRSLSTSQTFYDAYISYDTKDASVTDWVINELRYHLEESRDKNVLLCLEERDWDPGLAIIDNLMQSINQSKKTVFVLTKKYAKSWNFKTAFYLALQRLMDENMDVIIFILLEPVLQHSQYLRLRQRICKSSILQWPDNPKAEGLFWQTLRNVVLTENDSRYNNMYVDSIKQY
Protocol: The following tests were carried out in order to determine the activity of the compounds of formula (I) and (Ia) in HEK293-Blue-hTLR-7/8/9 cells assay.
HEK293-Blue-hTLR-8 cells assay:
A stable HEK293-Blue-hTLR-8 cell line was purchased from InvivoGen (Cat. #: hkb-htlr8, San Diego, Calif., USA). These cells were originally designed for studying the stimulation of human TLR8 by monitoring the activation of NE-κB. A SEAP (secreted embryonic alkaline phosphatase) reporter gene was placed under the control of the IFN-β minimal promoter fused to five NE-κB and AP-1-binding sites. The SEAP was induced by activating NE-κB and AP-1 via stimulating HEK-Blue hTLR8 cells with TLR8 ligands. Therefore the reporter expression was declined by TLR8 antagonist under the stimulation of a ligand, such as R848, for incubation of 20 hrs. The cell culture supernatant SEAP reporter activity was determined using QUANTI-Blue™ kit (Cat. #: rep-qbl, Invivogen, San Diego, Ca, USA) at a wavelength of 640 nm, a detection medium that turns purple or blue in the presence of alkaline phosphatase.
HEK293-Blue-hTLR8 cells were incubated at a density of 250,000-450,000 cells/mL in a volume of 170 μL in a 96-well plate in Dulbecco's Modified Eagle's medium (DMEM) containing 4.5 g/L glucose, 50 U/mL penicillin, […], […], 2 mM L-glutamine, 10% (v/v) heat-inactivated fetal bovine serum with addition of 20 μL test compound in a serial dilution in the presence of final DMSO at 1% and 10 μL of 60 uM R848 in above DMEM, perform incubation under 37° C. in a CO2 incubator for 20 hrs. Then 20 μL of the supernatant from each well was incubated with 180 μL Quanti-blue substrate solution at 37° C. for 2 hrs and the absorbance was read at 620˜655 nm using a spectrophotometer. The signalling pathway that TLR8 activation leads to downstream NE-κB activation has been widely accepted, and therefore similar reporter assay was modified for evaluating TLR8 antagonist.

CYP2D6 = molecular target: T2, CYP2D6 (Homo sapiens, UniProt P10635); assay: CYP inhibition assay in human liver microsome; assay type: in vitro ADME; conditions: human liver microsomes, probe dextromethorphan, dextromethorphan substrate, percentage inhibition <0: not or weak inhibitor, read-out: CYP 2D6 inhibition %@10 μM
T2 construct: tissue BD-Gentest 452117; host or cells: human liver microsomes
T2 sequence (P10635 whole entry): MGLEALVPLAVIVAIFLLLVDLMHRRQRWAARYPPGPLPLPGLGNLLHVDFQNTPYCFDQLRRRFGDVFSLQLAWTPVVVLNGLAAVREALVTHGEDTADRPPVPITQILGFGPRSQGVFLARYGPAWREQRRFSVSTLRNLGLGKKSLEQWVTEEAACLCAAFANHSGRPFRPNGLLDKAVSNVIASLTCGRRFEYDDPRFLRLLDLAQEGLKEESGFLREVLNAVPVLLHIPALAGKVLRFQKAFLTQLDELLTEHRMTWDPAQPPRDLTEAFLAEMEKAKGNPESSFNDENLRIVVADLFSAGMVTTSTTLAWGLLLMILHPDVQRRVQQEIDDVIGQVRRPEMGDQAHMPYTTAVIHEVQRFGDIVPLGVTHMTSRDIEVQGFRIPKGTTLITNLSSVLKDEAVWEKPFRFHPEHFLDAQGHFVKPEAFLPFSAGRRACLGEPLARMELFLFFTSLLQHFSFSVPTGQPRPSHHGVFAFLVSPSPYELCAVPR
Protocol: The compounds would be desirable to have minimal DDI liabilities. Therefore, the effects of compounds of formula (I) or (Ia) on CYP2D6 are determined.
This is a high throughput screening assay used for assessment of reversible inhibition of CYP2D6 activity of test compounds in human liver microsome (HLM) in early discovery stage.
10 mM DMSO stock solutions of test compounds were diluted in DMSO to generate 2 mM intermediate stock solution. 250 nL of intermediate stock solution were transferred in duplicate into 3 separate 384 well microtitre plates (assay-ready plates). A mixture of HLM and each substrate was made up. 45 μL of HLM substrate mix was then transferred to each well of an assay ready plate and mixed. The negative (solvent) and positive control (standard inhibitor for CYP 2D6) were included in each assay ready plate. The assay ready plate was warmed to 37° C. in an incubator over 10 minutes. 5 μL pre-warmed NADPH regenerating system was added to each incubation well to start the reaction. Final incubation volume was 50 μL. The assay plate then was placed back in the 37° C. incubator. After 10 minutes incubation, incubates were quenched by addition of 50 μL 100% acetonitrile containing internal standards (20 ng/mL D3-Dextrorphan). The supernatants were collected for RapidFire/MS/MS analysis.
RapidFire online solid phase extraction/sample injection system (Agilent) coupled with API4000 triple quadrupole mass spectrometer (AB Sciex) were used for sample analysis. The mobile phase composed of acetonitrile and water supplemented with 0.1% formic acid. A C4 solid phase extraction cartridge is used for sample separation. MS detection is achieved in positive ion MRM mode.
Data analysis Peak areas for substrate, metabolite and internal standard are determined using the RapidFire integrator software (version 3.6.12009.12296). Peak area ratios (PAR) of metabolite and internal standard (stable-labelled metabolite) are then calculated. The measurement window for each experiment is then defined:
PAR (0% activity), average PAR for all incubations containing concentrated inhibitor; Par (100% activity), average PAR for all incubations containing no inhibitor (DMSO controls);
% Activity (test inhibitor)=
=[PAR(test inhibitor)-PAR(0% activity)]/[PAR(100% activity)-PAR(0% activity)];
% Inhibition (test inhibitor)=100-% Activity (test inhibitor).

Compound	pIC50 (human TLR8)	inhibition at 10 min, 10 μM (CYP2D6) [%]
Cc1cc(N2CCOC3(CN(C[C@H]4CN(c5ccc(C#N)c6ncccc56)C[C@@H](C)O4)C3)C2)cc(C)n1 [Example 14]	> 8.52	19
Cc1cc(N2CCC23CN(C[C@H]2CN(c4ccc(C#N)c5ncccc45)C[C@@H](C)O2)C3)ccn1 [Example 15]	8.22	4
Cc1cc(N2CCOC3(CN(C[C@H]4CN(c5ccc(C#N)c6ncccc56)C[C@@H](C)O4)C3)C2)ccn1 [Example 16]	> 8.52	5
C[C@@H]1CN(c2ccc(C#N)c3ncccc23)C[C@H](CN[C@@H]2CCCN(c3ccnc(N)c3)C2)O1 [Example 21, 5-[(2S,6R)-2-[[[(3R)-1-(2-amino-4-pyridyl)-3-piperidyl]amino]methyl]-6-methyl-morpholin-4-yl]quinoline-8-carbonitrile]	7.82	2
C[C@@H]1CN(c2ccc(C#N)c3ncccc23)C[C@H](CN[C@H]2CCCN(c3ccnc(N)c3)C2)O1 [Example 22]	7.42	2
Cc1cc(N2CCC[C@@H](NC[C@H]3CN(c4ccc(C#N)c5ncccc45)C[C@@H](C)O3)C2)cc(CO)n1 [Example 24]	8.00	-9.5
Cc1cc(N2CCC[C@H](NC[C@H]3CN(c4ccc(C#N)c5ncccc45)C[C@@H](C)O3)C2)cc(CO)n1 [Example 25]	7.85	8.5
Cc1cc(N2CC(NC[C@H]3CN(c4ccc(C#N)c5ncccc45)C[C@@H](C)O3)C2)cc(CO)n1 [Example 30]	7.85	8.5
Cc1cc(N2CCC[C@@H](N(C)C[C@H]3CN(c4ccc(C#N)c5ncccc45)C[C@@H](C)O3)C2)cc(CO)n1 [Example 35]	8.05	-4
Cc1cc(N2CCC[C@H](N(C)C[C@H]3CN(c4ccc(C#N)c5ncccc45)C[C@@H](C)O3)C2)cc(CO)n1 [Example 38]	8.40	0
Cc1cc(N2CCN(C[C@H]3CN(c4ccc(C#N)c5ncccc45)C[C@@H](C)O3)CC2)cc(N)n1 [Example 40, 5-[(2S,6R)-2-[[4-(2-amino-6-methyl-4-pyridyl)piperazin-1-yl]methyl]-6-methyl-morpholin-4-yl]quinoline-8-carbonitrile]	> 8.52	14.5
CNc1cc(N2CCN(C[C@H]3CN(c4ccc(C#N)c5ncccc45)C[C@@H](C)O3)CC2)cc(C)n1 [Example 42, 5-[(2R,6S)-2-methyl-6-[[4-[2-methyl-6-(methylamino)-4-pyridyl]piperazin-1-yl]methyl]morpholin-4-yl]quinoline-8-carbonitrile]	> 8.52	-0.5
Cc1cc(C2CCN(C[C@H]3CN(c4ccc(C#N)c5ncccc45)C[C@@H](C)O3)CC2)cc(N)n1 [Example 43, 5-[(2S,6R)-2-[[4-(2-amino-6-methyl-4-pyridyl)-1-piperidyl]methyl]-6-methyl-morpholin-4-yl]quinoline-8-carbonitrile]	7.74	-13
Cc1cc(N2CC3(CN(C[C@H]4CN(c5ccc(C#N)c6ncccc56)C[C@@H](C)O4)C3)C2)cc(C(C)O)n1 (stereo partly drawn) [Example 44, 5-[(2S,6R)-2-[[2-[2-(1-hydroxyethyl)-6-methyl-4-pyridyl]-2,6-diazaspiro[3.3]heptan-6-yl]methyl]-6-methyl-morpholin-4-yl]quinoline-8-carbonitrile]	7.52	5
C[C@@H]1CN(c2ccc(C#N)c3ncccc23)C[C@H](CN2CCN(c3cc(N)nc(CO)c3)CC2)O1 [Example 45, 5-[(2S,6R)-2-[[4-[2-amino-6-(hydroxymethyl)-4-pyridyl]piperazin-1-yl]methyl]-6-methyl-morpholin-4-yl]quinoline-8-carbonitrile]	7.85	-2.5
CC(O)c1cc(N2CC3(CN(C[C@H]4CN(c5ccc(C#N)c6ncccc56)C[C@@H](C)O4)C3)C2)ccn1 (stereo partly drawn) [Example 46, 5-[(2S,6R)-2-[[2-[2-(1-hydroxyethyl)-4-pyridyl]-2,6-diazaspiro[3.3]heptan-6-yl]methyl]-6-methyl-morpholin-4-yl]quinoline-8-carbonitrile]	7.05	17
Cc1cc(N2CCN(C[C@H]3CN(c4ccc(C#N)c5ncccc45)C[C@@H](C)O3)CC2)cc(CO)n1 [Example 50]	8.40	10.5
C[C@@H]1CN(c2ccc(C#N)c3ncccc23)C[C@H](CN2CC3(C2)CN(c2ccnc(CO)c2)CCO3)O1 [Example 51]	8.52	-15.5
